{
  "source": "patent US9980967B1",
  "about": "“Method for overcoming drug resistance of EGFR mutation and cancerous stemness of human non-small cell lung carcinoma” (NATIONAL CHIAO TUNG UNIVERSITY, priority 2017, dated 2018)",
  "key": {"[1]": {"tested_on": "Survivin and cleaved Caspase 3 in xenograft tumor tissues", "experiment": "Western blot and IHC of Survivin and cleaved Caspase 3 in xenograft tumor tissues", "type": "in vivo, nude mice", "description": "FIG. 11 is a result of IHC immunohistochemistry staining showing that SP101 enhanced Caspase 3 protein level in NSCLC tumor tissues. Representative photographs were by IHC staining the active Caspase 3 proteins in the tumor sections. Positive cells were visualized by DAB staining (brown), counterstain with nuclei by hematoxylin.\nPlease refer to FIG. 10. The xenograft tumor tissues from each group were homogenized and the total lysates were subjected to Western blot analysis using specific antibodies, including rabbit anti-Survivin, rabbit anti-cleaved Caspase 3 and mouse anti-actin. Representative immunoblotting data were shown from one of two separate experiments with similar findings. Actin was an internal control protein. SP101 reduced Survivin protein level; meanwhile, SP101 induced the apoptotic protein level of cleaved Caspase 3."}, "[2]": {"tested_on": "Oct4, Nanog and Survivin in A549-ON cells", "experiment": "Western blot and immunofluorescence of Oct4, Nanog and Survivin in A549-ON cells", "type": "cell-based, human", "experimental": "At the end of treatment, the total protein extracts were prepared for Western blot analyses using specific antibodies, including rabbit anti-Survivin, rabbit anti-cleaved caspase 3 and mouse anti-actin. Representative immunoblotting data were shown from one of three separate experiments with similar findings. […] was an internal control protein.\n(§1) FIG. 17 is a result of immunofluorescence staining and confocal microscopy. Then green color indicates the location of Oct4 excited with 488 nm and the emission and collected in 493-518 nm. The β-tubulin was stained with Cy3-labeled mouse anti-β-tubulin antibody. The fluorescence intensity of β-tubulin (red color) was excited with 543 nm and the emission was collected in range of 560-580 nm. Blue fluorescence indicates nuclei following staining with Hoechst 33258 and was excited with 405 nm and the emission was collected in 415-450 nm. Overlapping localization is shown in the merged images.\nas §1, with “18” for “17”, “Survivin protein” for “Oct4”\nOct4 and Nanog have been served as markers of tumorigenesis. Furthermore, Oct4 played a pivotal role in Gefitinib resistance in lung cancer stem cells. […] Please refer to FIG. 16. […] We further investigated the expression of Oct4 and Survivin by immunofluorescence staining and confocal microscopy. Please refer to FIGS. 17 and 18. The green fluorescence (dylight 488) indicated the location of Oct4 and Survivin. The blue fluorescence (Hoechst 33258) and red (Cy3) fluorescence represent nucleus and β-tubulin, respectively. Treatment with 30 μM SP101 for 24 hours inhibited Oct4 proteins expression and induced apoptotic bodies as shown in FIG. 17; moreover, the Survivin proteins were inhibited by SP101 treatment as shown in FIG. 18."}, "[3]": {"tested_on": "A549 cells", "experiment": "Annexin V/PI apoptosis flow cytometry in A549 cells", "type": "cell-based, human", "conditions": "30 μM for 24 hours", "experimental": "At the end of treatment, apoptosis was measured by Annexin VPI staining using flow cytometry analysis. The population of Annexin V+/PI− cells represents cells undergoing early apoptosis (low right), whereas the fraction of Annexin V+/PI+ cell are those undergoing late apoptosis (upper right). The representative flow data were shown from one of three separate experiments with similar findings.\nPlease refer to FIG. 14. The expressions of phosphorylated EGFR and total EGFR proteins after treatment with SP101 (10˜40 μM for 24 hours) in the K-Ras mutation A549 cells were analyzed by Western blot. […] Please refer to FIG. 15. We further examined the apoptosis levels of SP101 in A549 cells by Annexin V and PI staining. The cells were trypsinized and then incubated with propidium iodide (5 μl) and Annexin V-FITC (5 μl) at room temperature for 5 min before flow cytometry."}, "[4]": {"conditions": "xenograft tumor tissues, Western blot"}, "[5]": {"conditions": "30 μM for 24 hours, immunofluorescence and confocal microscopy"}, "[6]": {"conditions": "20<30 μM for 24 hours, Western blot"}},
  "data": [
    {"smiles": "CCCCCCCCCCCCOC(=O)CCC(=O)N1CCN(CCCOc2cc3c(Nc4ccc(F)c(Cl)c4)ncnc3cc2OC)CC1", "note": "[SP101, dodecyl 4-(4-(3-(4-(3-chloro-4-fluorophenylamino)-7-methoxyquinazolin-6-yloxy)propyl)piperazin-1-yl)-4-oxobutanoate]", "values": [
      {"measurement": "Survivin protein level", "setting": "[1]; [4]", "result": "reduced"},
      {"measurement": "apoptotic protein level of cleaved Caspase 3", "setting": "[1]; [4]", "result": "induced"},
      {"measurement": "reduction of Survivin protein and increasing of cleaved Caspase 3 protein level, compared with Gefitinib", "setting": "[1]; [4]", "result": "more potent"},
      {"measurement": "active forms of Caspase 3 protein", "setting": "[1]; xenografted NSCLC tumors, IHC staining, compared with control and Gefitinib groups", "result": "significantly induced"},
      {"measurement": "Oct4 proteins expression", "setting": "[2]; [5]", "result": "inhibited"},
      {"measurement": "Survivin proteins", "setting": "[2]; [5]", "result": "inhibited"},
      {"measurement": "Nanog protein expression", "setting": "[2]; [6]", "result": "significantly reduced"},
      {"measurement": "Oct4 protein expression", "setting": "[2]; [6]", "result": "significantly reduced"},
      {"measurement": "Survivin protein expression", "setting": "[2]; [6]", "result": "significantly reduced"},
      {"measurement": "levels of Annexin V+/PI− cells (early apoptosis) and Annexin V+/PI+ cells (late apoptosis)", "setting": "[3]", "result": "significantly increased"}
    ]}
  ]
}
